For seven compounds, IC50 and Ki results are on record in ChEMBL document CHEMBL3763155 (Bioorg Med Chem Lett, 2016).

Test [1] can be described thus: Displacement of 125I-[Sar1,Leu8] angiotensin-2 from rat type 1 angiotensin-2 receptor expressed in African green monkey COS7 cells after 24 hrs. The note with it: cos-7. The format is cell-based. For orientation: Displacement assays read how much labelled ligand stays bound in the presence of the test substance.
Test [2] has as its target T1, Type-2 angiotensin II receptor (Homo sapiens, UniProt P50052).
T1 sequence (P50052 whole entry): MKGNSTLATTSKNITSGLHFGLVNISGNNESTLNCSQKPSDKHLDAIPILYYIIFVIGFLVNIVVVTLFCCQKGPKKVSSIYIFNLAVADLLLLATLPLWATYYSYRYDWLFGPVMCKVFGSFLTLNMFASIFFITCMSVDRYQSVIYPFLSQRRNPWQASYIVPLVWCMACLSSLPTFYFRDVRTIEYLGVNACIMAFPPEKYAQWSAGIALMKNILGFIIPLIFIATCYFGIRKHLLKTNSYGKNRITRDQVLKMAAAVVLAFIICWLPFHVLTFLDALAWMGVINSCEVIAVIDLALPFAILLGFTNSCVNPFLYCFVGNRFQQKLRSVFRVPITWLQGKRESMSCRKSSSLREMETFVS
The experiment in a line: Binding affinity to type-2 angiotensin-2 receptor (unknown origin).

Bounds are passed on as bounds.

By IC50 is commonly meant the point on the concentration scale where inhibition reaches its midpoint. Take `CCCCOC(=O)NS(=O)(=O)c1ccc(CCC)cc1-c1ccc(Cn2c(CC)nc3c(C)cc(C)nc32)cc1`: the IC50 in test [1] stood at 1.5 nM.

By Ki is commonly meant a dissociation constant, usually derived from enzyme kinetics or from competition with a known ligand. In the case of `CCCCOC(=O)NS(=O)(=O)c1sc(CC(C)C)cc1-c1ccc(Cn2ccnc2)cc1` [BULOXIBUTID], the Ki in test [1] was over 10000 nM.

`CC[C@H](C)[C@H](NC(=O)[C@H](Cc1ccc(O)cc1)NC(=O)[C@@H](NC(=O)[C@H](CCCNC(=N)N)NC(=O)[C@@H](N)CC(=O)O)C(C)C)C(=O)N[C@@H](Cc1cnc[nH]1)C(=O)N1CCC[C@H]1C(=O)N[C@@H](Cc1ccccc1)C(=O)O` [ANGIOTENSIN II] registered a Ki in test [1] of 0.95 nM.

`COc1ccc2c(c1OCc1ccccc1)C[C@@H](C(=O)O)N(C(=O)C(c1ccccc1)c1ccccc1)C2` [OLODANRIGAN]: in test [1], the Ki is 409 nM.

For the compound `CCCCc1nc(Cl)c(CO)n1Cc1ccc(-c2ccccc2-c2nnn[nH]2)cc1` [LOSARTAN], in test [1], the IC50 came out at 12.1 nM.

Turning to `CCCCOC(=O)NS(=O)(=O)c1ccc(CC(C)C)cc1-c1ccc(Cn2c(CC)nc3c(C)cc(C)nc32)cc1`, in test [1], the IC50 was found to be 2.1 nM.

With `CCOc1nc2cccc(C(=O)O)c2n1Cc1ccc(-c2ccccc2-c2nnn[nH]2)cc1`, the Ki in test [1] was 0.17 nM; in test [2], over 10000 nM.
